The test system of series [1] is ApoE knockout mice. The series can be described thus: Atherosclerosis animal model (high-cholesterol diet, ApoE knockout mice). The settings on record: 50 mg/kg intraperitoneally every 2 days for 8 weeks. The class given is in vivo. Here is the method: Animal experiment was performed in accordance with the guidelines approved by the Institutional Animal Care and Use Committee of Yonsei University (IACUC-A-202404-1847-02). 6-week-old male ApoE knockout B6.KOR/StmSlc-Apoeshl mice were housed in a specific pathogen-free system with a 12-hour light-dark cycle with free access to food and water, and randomly divided into three groups (control, positive control, and test groups). Then, the sample was injected intraperitoneally to the control group (vehicle), the positive control group (CTS (cryptotanshinone), 20 mg/kg), and the test group (peptide, 50 mg/kg) once every two days for 8 weeks while feeding the mice with a high-cholesterol diet until the end of the experiment (for 8 weeks).
After sacrificing the mice, PBS perfusion was performed through the left ventricle, and the heart, artery, and blood were obtained. The artery was cut along the bifurcation of the iliac artery, spread out, fixed with pins, and fixed in 10% formaldehyde for 16 hours. After staining with Oil-Red-O for 16 hours, the samples were washed with PBS and images were obtained using a microscope (NS-6T, China).
The fusion peptide 4 (50 mg/kg) was injected intraperitoneally every 2 days for 8 weeks into an animal model of atherosclerosis (high-cholesterol diet, ApoE knockout mice).

For series [2], the system named is HUVEC cells. The series can be described thus: MTT assay (cell proliferation). The class given is cell-based, human. The settings on record: 0-300 μM, up to 72 hours. Here is the method:
Human umbilical vein endothelial cells (HUVECs) were cultured in EBM-2 medium supplemented with FBS (2%, v/v) and antibiotics. After seeding the cells in a 96-well plate at 3,000 cells/well and culturing the same, they were treated with the prepared fusion peptides on the next day at concentrations of 0, 100, 200, and 300 μM. After 0, 24, 48, and 72 hours, MTT solution (2 mg/mL) was treated at a concentration of 0.4 mg/mL. After culturing for 3 hours, the medium was removed and the cells were treated with DMSO. Then, fluorescence was measured at 540 nm.
Afterwards, 3-[4,5-dimethylthiazol-2-yl]-2,5-diphenyltetrazolium bromide (MTT) assay, which allows observation of cell proliferation by fluorescence, was performed to confirm the optimal concentration of the fusion peptide 4 in the HUVEC cells.
(Formazan colour is commonly taken as a measure of viable cells.)

The subject of series [3] is Hela cells. Briefly: SPLICS (ER-mitochondria split-GFP) proximity assay. The class given is cell-based. The conditions noted are these: Hela cells transfected with SPLICS vector, 10 mM EtOH, peptide 20 μM, 1 hour, vs control (DW). The text has this:
To this end, MAM regulatory activity was verified using the SPLICS (ER-mitochondria split-GFP) system, which allows observation of the proximity between intracellular organelles through fluorescence emission. The SPLICS system is a system that can efficiently image the proximity of intracellular organelles based on the principle that split-GFP fluorescence is emitted when two organelles are within approximately 10 to 40 nm of each other. As the two organelles approach, complementation of GFP occurs, resulting in fluorescence at the junction. It is to be noted that increased contact between ER and mitochondria may lead to cellular stress and dysfunction.
First, to observe the change in the distance between the ER and mitochondria due to treatment with the fusion peptides, Hela cells were transfected with the SPLICS vector. Afterwards, the HeLa cells were treated with the fusion peptides and the area (%) of GFP fluorescence relative to the total area per cell was measured. […] That is to say, it was observed from the decrease in green fluorescence in the groups treated with the fusion peptides of the present disclosure that the two organelles were moving apart from each other.

Where no end group is shown, it is not given here.

Turning to “YARVRRRGPRRRSIYYLGIGPT [fusion peptide 4, YARVRRRGPRR-RSIYYLGIGPT]”, the body weight result in series [1] is on record as “did not affect the body weight”. Moreover, the “cell proliferation (MTT)” value in series [2] was “no inhibition of cell proliferation was observed even at concentrations of 100-200 μM”. Regarding “YARVRRRGPRR-GGG-FSTAADGQTQ (YARVRRRGPRRGGGFSTAADGQTQ) [fusion peptide 2, CPP Hph-1 linked to Peptide 2 (GGG-…), GRP75 motif]”, the “GFP fluorescence signal (area of GFP fluorescence relative to the total area per cell), SPLICS” value in series [3] was “significant decrease in fluorescence signals”. Regarding “YARVRRRGPRR-FSTAADGQTQ (YARVRRRGPRRFSTAADGQTQ) [fusion peptide 1]”, the “GFP fluorescence signal (area of GFP fluorescence relative to the total area per cell), SPLICS” value in series [3] is listed as “significant decrease in fluorescence signals”.

As for “YARVRRRGPRR-DTETKME (YARVRRRGPRRDTETKME) [fusion peptide 3]”, in series [3], the “GFP fluorescence signal (area of GFP fluorescence relative to the total area per cell), SPLICS” value is on record as “significant decrease in fluorescence signals”.

Source of the values: patent publication US20250171496A1, “FUSION PEPTIDE FOR REGULATING ACTIVATION OF MAM AND USE THEREOF” (UIF (University Industry Foundation), Yonsei University, priority 2023, published 2025).
